Numbered stars: 1 amine (or outer) side, 2 acyl side, 3 side chain; on linkers, the order of the positions; unused ones are H or OH. Square brackets hold non-standard residues; d marks the D form. Peptide text beside a SMILES is read from it. * marks the point of attachment. X12 = CNC(=N)NCCC[C@H](NC(=O)[C@H](CC(C)C)NCCN*)C(=O)N[C@@H](Cc1ccccc1)C(N)=O; X10 = NC(=O)C[C@@H](C(=O)[*:2])N(C[C@@H](N)Cc1ccc(O)cc1)[*:1]; X11 = O=C(CNC(=S)[C@H](Cc1ccccc1)N[*:1])[*:2]; X1 = O=C([C@H](Cc1ccc2ccccc2n1)N[*:1])[*:2]; Phe(4-Cl) = N[C@@H](Cc1ccc(Cl)cc1)C(=O)O; Phe(4-NH2) = Nc1ccc(C[C@H](N)C(=O)O)cc1; Arg(Me) = CNC(=N)NCCC[C@H](N)C(=O)O; 4Pal = N[C@@H](Cc1ccncc1)C(=O)O; d3Pal = N[C@H](Cc1cccnc1)C(=O)O; Cha = N[C@@H](CC1CCCCC1)C(=O)O; azaGly = NNC(=O)O
Biological target: hOT7T175 (Homo sapiens, UniProt Q969F8, L364H)
Assay: Intracellular Ca ion level-increasing activity using FLIPR in hOT7T175/CHO
Assay type: cell-based
Parameters: expressed in transfected cells; host or cells: CHO/dhfr- cells, obtained from ATCC
Conditions: relative, Metastin (1-54) = 1

Sequence of hOT7T175 (Q969F8 whole entry L364H): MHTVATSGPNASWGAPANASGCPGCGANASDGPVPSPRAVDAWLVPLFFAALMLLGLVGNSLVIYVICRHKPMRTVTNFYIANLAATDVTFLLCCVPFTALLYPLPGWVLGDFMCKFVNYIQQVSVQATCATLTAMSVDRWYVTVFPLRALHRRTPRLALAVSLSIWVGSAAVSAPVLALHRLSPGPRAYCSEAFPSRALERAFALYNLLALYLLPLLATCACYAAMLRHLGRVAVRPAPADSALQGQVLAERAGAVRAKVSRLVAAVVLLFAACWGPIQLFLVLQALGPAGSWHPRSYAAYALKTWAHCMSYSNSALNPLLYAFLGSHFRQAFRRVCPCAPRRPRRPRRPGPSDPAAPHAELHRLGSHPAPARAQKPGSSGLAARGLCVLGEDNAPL

Specific Activity (intracellular Ca ion level-increasing activity)	Structure (SMILES)
1	CC(=O)NC(=N)NCCC[C@H](NC(=O)[C@H](CC(C)C)NC(=O)CNC(=O)[C@H](Cc1ccccc1)NC(=O)[C@H](CO)NC(=O)[C@H](CC(N)=O)NC(=O)[C@H](Cc1c[nH]c2ccccc12)NC(=O)[C@H](CC(N)=O)NC(=O)[C@H](N)Cc1ccc(O)cc1)C(=O)N[C@@H](Cc1ccccc1)C(N)=O [Compound No. 194]
10	CC(=O)N[C@@H](Cc1ccc(O)cc1)C(=O)N[C@@H](CC(N)=O)C(=O)N[C@@H](Cc1c[nH]c2ccccc12)C(=O)N[C@@H](CC(N)=O)C(=O)N[C@@H](CO)C(=O)N[C@@H](Cc1ccccc1)C(=O)NCC(=O)N[C@@H](CC(C)C)C(=O)N[C@@H](CCCNC(=N)N)C(=O)N[C@@H](Cc1ccccc1)C(N)=O [Compound No. 30]
5	CC(C)C[C@H](NC(=O)NNC(=O)[C@H](Cc1ccccc1)NC(=O)[C@H](CO)NC(=O)[C@H](CC(N)=O)NC(=O)[C@H](Cc1c[nH]c2ccccc12)NC(=O)[C@H](CC(N)=O)NC(=O)[C@@H](N)Cc1ccc(O)cc1)C(=O)N[C@@H](CCCNC(=N)N)C(=O)N[C@@H](Cc1ccccc1)C(N)=O [Compound No. 176, Tyr-Asn-Trp-Asn-Ser-Phe-AzaGly-Leu-Arg-Phe-NH2]
10	CNC(=N)NCCC[C@H](NC(=O)[C@H](CC(C)C)NC(=O)CNC(=O)[C@H](Cc1ccccc1)NC(=O)[C@H](CO)NC(=O)[C@H](CC(N)=O)NC(=O)[C@H](Cc1c[nH]c2ccccc12)NC(=O)[C@@H](CC(N)=O)NC(=O)[C@H](N)Cc1ccc(O)cc1)C(=O)N[C@@H](Cc1ccccc1)C(N)=O [Compound No. 230]
5	CNC(=N)NCCC[C@H](NC(=O)[C@H](CC(C)C)NC(=O)NNC(=O)[C@H](Cc1ccccc1)NC(=O)[C@H](CO)NC(=O)[C@H](CC(N)=O)NC(=O)[C@@H](Cc1c[nH]c2ccccc12)NC(=O)[C@H](CC(N)=O)NC[C@@H](N)Cc1ccc(O)cc1)C(=O)N[C@@H](Cc1ccccc1)C(N)=O [Compound No. 300, TyrΨ(CH2NH)Asn-D-Trp-Asn-Ser-Phe-AzaGly-Leu-Arg(Me)-Phe-NH2] (H-[X10][dW]NSF[azaGly]L[Arg(Me)]F-NH2)
2	CNC(=N)NCCC[C@H](NC(=O)[C@H](CC(C)C)NC(=O)NNC(=O)[C@H](Cc1ccccc1)NC(=O)[C@H](CO)NC(=O)[C@H](CC(N)=O)NC(=O)[C@H](CC1CCCCC1)NC(=O)[C@@H](Cc1ccc(O)cc1)NC(=O)[C@H](N)Cc1cccnc1)C(=O)N[C@@H](Cc1ccccc1)C(N)=O [Compound No. 291, D-Pya(3)-D-Tyr-Cha-Asn-Ser-Phe-AzaGly-Leu-Arg(Me)-Phe-NH2] (H-[d3Pal][dY][Cha]NSF[azaGly]L[Arg(Me)]F-NH2; N-terminus assumed)
3	CNC(=N)NCCC[C@H](NC(=O)[C@H](CC(C)C)NC(=O)CNC(=S)[C@H](Cc1ccccc1)NC(=O)[C@H](CO)NC(=O)[C@H](CC(N)=O)NC(=O)[C@H](Cc1c[nH]c2ccccc12)NC(=O)[C@H](CC(N)=O)NC(=O)[C@H](N)Cc1ccc(O)cc1)C(=O)N[C@@H](Cc1ccccc1)C(N)=O [Compound No. 296, D-Tyr-Asn-Trp-Asn-Ser-PheΨ(CSNH)Gly-Leu-Arg(Me)-Phe-NH2] (H-[dY]NWNS[X11]L[Arg(Me)]F-NH2)
1	CNC(=N)NCCC[C@H](NC(=O)[C@H](CC(C)C)NC(=O)NNC(=O)[C@H](Cc1ccccc1)NC(=O)[C@H](CO)NC(=O)[C@H](CC(N)=O)NC(=O)[C@H](Cc1ccc(Cl)cc1)NC(=O)[C@H](CC(N)=O)NC(=O)[C@H](N)Cc1ccc(O)cc1)C(=O)N[C@@H](Cc1ccccc1)C(N)=O [Compound No. 249, D-Tyr-Asn-Phe(4Cl)-Asn-Ser-Phe-AzaGly-Leu-Arg(Me)-Phe-NH2] (H-[dY]N[Phe(4-Cl)]NSF[azaGly]L[Arg(Me)]F-NH2)
1	CC(C)C[C@H](NC(=O)CNC(=O)[C@H](Cc1ccccc1)NC(=O)[C@H](CO)NC(=O)[C@H](CC(N)=O)NC(=O)[C@H](Cc1c[nH]c2ccccc12)NC(=O)[C@H](CC(N)=O)NC(=O)[C@@H](N)Cc1ccc(O)cc1)C(=O)N[C@@H](CCCNC(=N)N)C(=O)N[C@@H](Cc1ccc2ccccc2n1)C(N)=O [Compound No. 201] (H-YNWNSFGLR[X1]-NH2)
1	CNC(=N)NCCC[C@H](NC(=O)[C@H](CC(C)C)NC(=O)NNC(=O)[C@H](Cc1ccccc1)NC(=O)[C@H](CO)NC(=O)[C@H](CC(N)=O)NC(=O)[C@@H](NC(=O)[C@@H](CC(N)=O)NC(=O)[C@H](N)Cc1ccc(O)cc1)[C@@H](C)O)C(=O)N[C@@H](Cc1ccccc1)C(N)=O [Compound No. 284, D-Tyr-D-Asn-Thr-Asn-Ser-Phe-AzaGly-Leu-Arg(Me)-Phe-NH2] (H-[dY][dN]TNSF[azaGly]L[Arg(Me)]F-NH2)
1	CNC(=N)NCCC[C@H](NC(=O)[C@H](CC(C)C)NC(=O)CNC(=O)[C@H](Cc1ccccc1)NC(=O)[C@H](CO)NC(=O)[C@H](C)NC(=O)[C@H](Cc1c[nH]c2ccccc12)NC(=O)[C@H](CC(N)=O)NC(=O)[C@H](N)Cc1ccc(O)cc1)C(=O)N[C@@H](Cc1ccccc1)C(N)=O [Compound No. 210] (H-[dY]NWASFGL[Arg(Me)]F-NH2)
1	CCNC(=N)NCCC[C@H](NC(=O)[C@H](CC(C)C)NC(=O)CNC(=O)[C@H](Cc1ccccc1)NC(=O)[C@H](CO)NC(=O)[C@H](CC(N)=O)NC(=O)[C@H](Cc1c[nH]c2ccccc12)NC(=O)[C@H](CC(N)=O)NC(=O)[C@H](N)Cc1ccc(O)cc1)C(=O)N[C@@H](Cc1ccccc1)C(N)=O [Compound No. 192]
3	CNC(=N)NCCC[C@H](NC(=O)[C@H](CC(C)C)NC(=O)NNC(=O)[C@H](Cc1ccccc1)NC(=O)[C@H](CO)NC(=O)[C@H](CC(N)=O)NC(=O)[C@H](Cc1ccccc1)NC(=O)[C@@H](CC(N)=O)NC(=O)[C@H](N)Cc1ccc(O)cc1)C(=O)N[C@@H](Cc1ccccc1)C(N)=O [Compound No. 257, D-Tyr-D-Asn-Phe-Asn-Ser-Phe-AzaGly-Leu-Arg(Me)-Phe-NH2] (H-[dY][dN]FNSF[azaGly]L[Arg(Me)]F-NH2)
1	CNC(=N)NCCC[C@H](NC(=O)[C@H](CC(C)C)NCCNC(=O)[C@H](Cc1ccccc1)NC(=O)[C@H](CO)NC(=O)[C@H](CC(N)=O)NC(=O)[C@H](Cc1c[nH]c2ccccc12)NC(=O)[C@H](CC(N)=O)NC(=O)[C@H](N)Cc1ccc(O)cc1)C(=O)N[C@@H](Cc1ccccc1)C(N)=O [Compound No. 307, D-Tyr-Asn-Trp-Asn-Ser-Phe-GlyΨ(CH2NH)Leu-Arg(Me)-Phe-NH2] (H-[dY]NWNSF-X12)
1	CNC(=N)NCCC[C@H](NC(=O)[C@H](CC(C)C)NC(=O)NNC(=O)[C@H](Cc1ccccc1)NC(=O)[C@H](CO)NC(=O)[C@H](CC(N)=O)NC(=O)[C@@H](NC(=O)[C@H](N)Cc1ccc(O)cc1)[C@@H](C)O)C(=O)N[C@@H](Cc1ccccc1)C(N)=O [Compound No. 241, D-Tyr-Thr-Asn-Ser-Phe-AzaGly-Leu-Arg(Me)-Phe-NH2] (H-[dY]TNSF[azaGly]L[Arg(Me)]F-NH2)
10	CC(C)C[C@H](NC(=O)CNC(=O)[C@H](Cc1ccccc1)NC(=O)[C@H](CO)NC(=O)[C@H](CC(N)=O)NC(=O)[C@H](Cc1c[nH]c2ccccc12)NC(=O)[C@H](CC(N)=O)NC(=O)[C@@H](N)Cc1ccc(O)cc1)C(=O)N[C@@H](CCCNC(=N)N)C(=O)N[C@@H](Cc1ccc(F)c(F)c1)C(N)=O [Compound No. 198]
1	CNC(=N)NCCC[C@H](NC(=O)[C@H](CC(C)C)NC(=O)NNC(=O)[C@H](Cc1ccccc1)NC(=O)[C@H](CO)NC(=O)[C@H](CC(N)=O)NC(=O)[C@H](Cc1c[nH]c2ccccc12)NC(=O)[C@H](N)Cc1cccnc1)C(=O)N[C@@H](Cc1ccccc1)C(N)=O [Compound No. 289, D-Pya(3)-Trp-Asn-Ser-Phe-AzaGly-Leu-Arg(Me)-Phe-NH2] (H-[d3Pal]WNSF[azaGly]L[Arg(Me)]F-NH2)
1	CNC(=N)NCCC[C@H](NC(=O)[C@H](CC(C)C)NC(=O)NNC(=O)[C@H](Cc1ccccc1)NC(=O)[C@H](CO)NC(=O)[C@H](CC(N)=O)NC(=O)[C@H](Cc1ccc(N)cc1)NC(=O)[C@H](CC(N)=O)NC(=O)[C@H](N)Cc1ccc(O)cc1)C(=O)N[C@@H](Cc1ccccc1)C(N)=O [Compound No. 250, D-Tyr-Asn-Phe(4NH2)-Asn-Ser-Phe-AzaGly-Leu-Arg(Me)-Phe-NH2] (H-[dY]N[Phe(4-NH2)]NSF[azaGly]L[Arg(Me)]F-NH2)
10	CNC(=N)NCCC[C@H](NC(=O)[C@H](CC(C)C)NC(=O)CNC(=O)[C@H](Cc1ccccc1)NC(=O)[C@@H](NC(=O)[C@H](CC(N)=O)NC(=O)[C@H](Cc1c[nH]c2ccccc12)NC(=O)[C@H](CC(N)=O)NC(=O)[C@H](N)Cc1ccc(O)cc1)[C@@H](C)O)C(=O)N[C@@H](Cc1ccccc1)C(N)=O [Compound No. 211] (H-[dY]NWNTFGL[Arg(Me)]F-NH2; N-terminus assumed)
3	CNC(=N)NCCC[C@H](NC(=O)[C@H](CC(C)C)NC(=O)NNC(=O)[C@H](Cc1ccccc1)NC(=O)[C@H](CO)NC(=O)[C@H](CC(N)=O)NC(=O)[C@H](Cc1ccncc1)NC(=O)[C@@H](CC(N)=O)NC(=O)[C@@H](N)Cc1ccc(O)cc1)C(=O)N[C@@H](Cc1ccccc1)C(N)=O [Compound No. 304, Tyr-D-Asn-Pya(4)-Asn-Ser-Phe-AzaGly-Leu-Arg(Me)-Phe-NH2] (H-Y[dN][4Pal]NSF[azaGly]L[Arg(Me)]F-NH2)
1	CNC(=N)NCCC[C@H](NC(=O)[C@H](CC(C)C)NC(=O)NNC(=O)[C@H](Cc1ccccc1)NC(=O)[C@H](CO)NC(=O)[C@H](CC(N)=O)NC(=O)[C@H](Cc1c[nH]c2ccccc12)NC(=O)[C@@H](Cc1c[nH]cn1)NC(=O)[C@H](N)Cc1ccc(O)cc1)C(=O)N[C@@H](Cc1ccccc1)C(N)=O [Compound No. 288, D-Tyr-D-His-Trp-Asn-Ser-Phe-AzaGly-Leu-Arg(Me)-Phe-NH2] (H-[dY][dH]WNSF[azaGly]L[Arg(Me)]F-NH2)

Source: US8361968B2 (Takeda Pharmaceutical Company Limited, priority 2002, dated 2013)
